Reference: EP2435433B1, “(DIHYDRO)IMIDAZOISO[5,1-A]QUINOLINES AS FSH RECEPTOR AGONISTS FOR THE TREATMENT OF FERTILITY DISORDERS” (Merck Sharp & Dohme B.V., priority 2009, dated 2010)

Target: T1, human FSH receptor (Homo sapiens, UniProt P23945)
T1 construct: expressed in transfected cells; host or cells: Chinese Hamster Ovary (CHO) cells, stably transfected, cotransfected with CRE/promotor-firefly luciferase reporter
T1 sequence (P23945 18-695): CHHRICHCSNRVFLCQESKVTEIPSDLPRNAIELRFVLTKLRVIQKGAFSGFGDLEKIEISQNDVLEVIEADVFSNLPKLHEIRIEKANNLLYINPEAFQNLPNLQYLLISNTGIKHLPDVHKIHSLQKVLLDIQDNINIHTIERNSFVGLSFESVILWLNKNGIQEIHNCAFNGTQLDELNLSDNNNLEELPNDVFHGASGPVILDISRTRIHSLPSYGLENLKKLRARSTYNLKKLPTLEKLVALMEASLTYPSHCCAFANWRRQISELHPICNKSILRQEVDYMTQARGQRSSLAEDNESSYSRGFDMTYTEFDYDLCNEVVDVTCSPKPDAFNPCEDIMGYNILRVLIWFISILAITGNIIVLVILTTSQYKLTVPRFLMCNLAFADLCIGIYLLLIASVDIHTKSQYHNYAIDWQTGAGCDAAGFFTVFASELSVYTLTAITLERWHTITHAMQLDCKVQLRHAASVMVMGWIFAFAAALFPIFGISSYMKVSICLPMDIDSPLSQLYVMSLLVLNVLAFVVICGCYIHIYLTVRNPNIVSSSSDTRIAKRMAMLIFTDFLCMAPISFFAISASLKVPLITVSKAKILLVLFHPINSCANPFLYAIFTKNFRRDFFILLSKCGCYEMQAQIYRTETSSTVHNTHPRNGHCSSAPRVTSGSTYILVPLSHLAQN
Assay: Agonistic activity of compounds at the human FSH receptor expressed in CHO cells, CRE/luciferase reporter (hFSHRago (CHO luc))
Type: cell-based
Settings: CHO cells stably transfected with the human FSH receptor and CRE/firefly luciferase reporter; 4 hours of incubation; half-maximal stimulation relative to the compound's own maximal effect; read-out: hFSHRago (CHO luc) EC50
From the text: The term EC50 means the concentration of the test compound that elicits half-maximal (50 %) stimulation compared to the compound's maximally attainable effect. The values can be determined e.g. in a cell line transfected with a FSH receptor gene and cotransfected with a cAMP responsive element/promoter directing the expression of a reporter gene. Values can be determined using a software program such as MathIQ (version 2.0, ID Business Solutions Limited).
Agonistic activity of the compounds at the human FSH receptor was determined in Chinese Hamster Ovary (CHO) cells stably transfected with the human FSH receptor and cotransfected with a cAMP responsive element (CRE)/promotor directing the expression of a firefly luciferase reporter gene. Binding of the compounds to the Gs protein-coupled FSH receptor will result in an increase of cAMP, which in turn will induce an increased transactivation of the luciferase reporter. Cells (7,500 cells/well of a 384 well plate) were incubated in Dulbecco' minimal essential F12 modified medium (Invitrogen), supplemented with 1 µg/ml bovine insulin, 5 µg/ml human apo-transferrin, 80 U/ml penicillin G and 80 µg/ml streptomycin with the test compounds (concentration between 0.0316 nM and 10.0 µM) in duplicate in a humidified atmosphere (95%) at 5-7% CO2 and 37°C. The final concentration of DMSO was 1%. After 4 hours of incubation, plates were allowed to adjust to room temperature for 1 hour. Then, Luclite (PerkinElmer) solution was added to the wells and cells were allowed to lyse for at least 1 hour at room temperature. Subsequently, luciferase activity was measured in a luminescence counter. The signal is expressed as counts per second (cps). The EC50 (concentration of the test compound that elicits half-maximal (50 %) luciferase stimulation compared to the compound's maximally attainable effect) and efficacy values (maximal effect of the test compound as percentage of the maximal effect of recombinant human FSH) of the compounds were determined using the software program MathIQ (version 2.0, ID Business Solutions Limited). EC50 data are indicated at the synthesis examples.

SMILES	EC50 [nM]
COc1cc2c(cc1-c1cccc(N)c1)-c1c(-c3cccs3)nc(C(=O)N(C)C(C)(C)C)n1CC2 [Example 2k, 9-(3-Amino-phenyl)-8-methoxy-1-thiophen-2-yl-5,6-dihydro-imidazo[5,1-a]isoquinoline-3-carboxylic acid tert-butyl-methyl-amide]	8
COc1cc2c(cc1OC)-c1c(-c3cccs3)nc(C(=O)N3CCCOCC3)n1CC2 [Example 26, (8,9-Dimethoxy-1-thiophen-2-yl-5,6-dihydro-imidazo[5,1-a]isoquinolin-3-yl)-[1,4]oxazepan-4-yl-methanone]	314
COc1cc2c(cc1NC(=O)CN1CCOCC1)-c1c(-c3cccs3)nc(C(=O)N(C)C(C)(C)C)n1CC2 [Example 14, 8-Methoxy-9-(2-morpholin-4-yl-acetylamino)-1-thiophen-2-yl-5,6-dihydro-imidazo[5,1-a]isoquinoline-3-carboxylic acid tert-butyl-methyl-amide]	10
COc1cc2c(cc1NC(=O)c1cccnc1)-c1c(-c3cccs3)nc(C(=O)N(C)C(C)(C)C)n1CC2 [Example 9, 8-Methoxy-9-[(pyridine-3-carbonyl)-amino]-1-thiophen-2-yl-5,6-dihydro-imidazo[5,1-a]isoquinoline-3-carboxylic acid tert-buyl-methyl-amide]	224
COc1cc2c(cc1-c1cccc(N(C)C)c1)-c1c(-c3cccs3)nc(C(=O)N(C)C(C)(C)C)n1CC2 [Example 2l, 9-(3-Dimethylamino-phenyl)-8-methoxy-1-thiophen-2-yl-5,6-dihydro-imidazo[5,1-a]iso-quinoline-3-carboxylic acid tert-butyl-methyl-amide]	9
COc1cc2c(cc1NC(=O)c1csnn1)-c1c(-c3cccs3)nc(C(=O)N(C)C(C)(C)C)n1CC2 [Example 12, 8-Methoxy-9-[([1,2,3]thiadiazole-4-carbonyl)-amino]-1-thiophen-2-yl-5,6-dihydro-imidazo[5,1-a]isoquinoline-3-carboxylic acid tert-butyl-methyl-amide]	15
CCN(C)CC(=O)Nc1cc2c(cc1OC)CCn1c(C(=O)N(C)C(C)(C)C)nc(-c3cccs3)c1-2 [Example 13b, 9-[2-(Ethyl-methyl-amino)-acetylamino]-8-methoxy-1-thiophen-2-yl-5,6-dihydro-imidazo[5,1-a]isoquinoline-3-carboxylic acid tert-butyl-methyl-amide]	26
COc1cc2c(cc1-c1ccccc1C#N)-c1c(-c3cccs3)nc(C(=O)N(C)C(C)(C)C)n1CC2 [Example 2j, 9-(2-Cyano-phenyl)-8-methoxy-1-thiophen-2-yl-5,6-dihydro-imidazo[5,1-a]isoquinoline-3-carboxylic acid tert-butyl-methyl-amide]	5
COc1cc2c(cc1NC(=O)c1cscn1)-c1c(-c3cccs3)nc(C(=O)N(C)C(C)(C)C)n1CC2 [Example 11, 8-Methoxy-9-[(thiazole-4-carbonyl)-amino]-1-thiophen-2-yl-5,6-dihydro-imidazo[5,1-a]isoquinoline-3-carboxylic acid tert-butyl-methyl-amide]	13
COc1cc2c(cc1OC)-c1c(-c3cccs3)nc(C(=O)N(CCO)C(C)C)n1CC2 [Example 25, 8,9-Dimethoxy-1-thiophen-2-yl-5,6-dihydro-imidazo[5,1-a]isoquinoline-3-carboxylic acid (2-hydroxy-ethyl)-isopropyl-amide]	138
COc1cc2c(cc1C(=O)NC(C)C)-c1c(-c3cccs3)nc(C(=O)N(C)C(C)(C)C)n1CC2 [Example 5, 8-Methoxy-1-thiophen-2-yl-5,6-dihydro-imidazo[5,1-a]isoquinoline-3,9-dicarboxylic acid 3-(tert-butyl-methyl-amide) 9-isopropylamide]	18
COc1cc2c(cc1-c1cccc(N3CCOCC3)n1)-c1c(-c3cccs3)nc(C(=O)N(C)C(C)(C)C)n1CC2 [Example 2d, 8-Methoxy-9-(6-morpholin-4-yl-pyridin-2-yl)-1-thiophen-2-yl-5,6-dihydro-imidazo[5,1-a]isoquinoline-3-carboxylic acid tert-butyl-methyl-amide]	100
COc1cc2c(cc1OCCN)-c1c(-c3cccs3)nc(C(=O)N(C)C(C)(C)C)n1CC2 [Example 31, 9-(2-Amino-ethoxy)-8-methoxy-1-thiophen-2-yl-5,6-dihydro-imidazo[5,1-a]isoquinoline-3-carboxylic acid tert-butyl-methyl-amide]	94
COc1cc2c(cc1-c1ccc3c(c1)OCO3)-c1c(-c3cccs3)nc(C(=O)N(C)C(C)(C)C)n1CC2 [Example 2r, 9-Benzo[1,3]dioxol-5-yl-8-methoxy-1-thiophen-2-yl-5,6-dihydro-imidazo[5,1-a]iso-quinoline-3-carboxylic acid tert-butyl-methyl-amide]	167
COc1cc2c(cc1-c1cccc(F)n1)-c1c(-c3cccs3)nc(C(=O)N(C)C(C)(C)C)n1CC2 [Example 2c, 9-(6-Fluoro-pyrjdin-2-yl)-8-methoxy-1-thiophen-2-yl-5,6-dihydro-imidazo[5,1-a]iso-quinoline-3-carboxylic acid tert-butyl-methyl-amide]	3
COc1cc2c(cc1N)-c1c(-c3cccs3)nc(C(=O)N(C)C(C)(C)C)n1CC2 [Example 6b, 9-Amino-8-methoxy-1-thiophen-2-yl-5,6-dihydro-imidazo[5,1-a]isoquinoline-3-carboxylic acid tert-butyl-methyl-amide]	740
COc1cc2c(cc1CC(C)C)-c1c(-c3cncs3)nc(C(=O)N(C)C(C)(C)C)n1CC2 [Example 38, 9-Isobutyl-8-methoxy-1-thiazol-5-yl-5,6-dihydro-imidazo[5,1-a]isoquinoline-3-carboxylic acid tert-butyl-methyl-amide]	13

Results, then the molecule that gave them:

EC50 [nM]	SMILES
2	COc1cc2c(cc1C=C(C)C)-c1c(-c3cccs3)nc(C(=O)N(C)C(C)(C)C)n1CC2 [Example 36c, 8-Methoxy-9-(2-methyl-propenyl)-1-thiophen-2-yl-5,6-dihydro-imidazo[5,1-a]isoquinoline-3-carboxylic acid tert-butyl-methyl-amide]
7	COc1cc2c(cc1OCCO)-c1c(-c3cccs3)nc(C(=O)N(C)C(C)(C)C)n1CC2 [Example 30c, 9-(2-Hydroxy-ethoxy)-8-methoxy-1-thiophen-2-yl-5,6-dihydro-imidazo[5,1-a]isoquinoline-3-carboxylic acid tert-butyl-methyl-amide]
200	CCc1cc2c(cc1CC(C)C)-c1c(-c3cccs3)nc(C(=O)N(C)C(C)(C)C)n1CC2 [Example 19e, 8-Ethyl-9-isobutyl-1-thiophen-2-yl-5,6-dihydro-imidazo[5,1-a]isoquinoline-3-carboxylic acid tert-butyl-methyl-amide]
191	COc1cc2c(cc1CCC(C)(C)O)-c1c(-c3cccs3)nc(C(=O)N(C)C(C)(C)C)n1CC2 [Example 41c, 9-(3-Hydroxy-3-methyl-butyl)-8-methoxy-1-thiophen-2-yl-5,6-dihydro-imidazo[5,1-a]isoquinoline-3-carboxylic acid tert-butyl-methyl-amide]
315	COc1cc2c(cc1OC)-c1c(-c3ccc(F)cc3)nc(C(=O)N3CCCN(C(C)=O)CC3)n1CC2 [Example 50e, 1-{4-[1-(4-Fluoro-phenyl)-8,9-dimethoxy-5,6-dihydro-imidazo[5,1-a]isoquinoline-3-carbonyl]-[1,4]diazepan-1-yl}-ethanone]
76	C=Cc1cc2c(cc1CC(C)C)-c1c(-c3cccs3)nc(C(=O)N(C)C(C)(C)C)n1CC2 [Example 19d, 9-Isobutyl-1-thiophen-2-yl-8-vinyl-5,6-dihydro-imidazo[5,1-a]isoquinoline-3-carboxylic acid tert-butyl-methyl-amide]
